Reference: patent US6380243B1, “Aminopyridine-containing thiourea inhibitors of herpes viruses” (American Home Products Corporation, priority 1998, dated 2002)
≈ marks a conversion by molar mass, not a printed value.

Assays:
VZV strain Ellen = test: VZV Antiviral (ELISA) Assay; assay type: cell-based, varicella-zoster virus; details: human foreskin fibroblast cells, three days; for IC50: Human alphaherpesvirus 3, 72 h, read-out: IC50 (ug/ml) VZV
Experimental: For the generation of stock VZV to be used in the assay, VZV strain Ellen (ATCC #VR-1367) is used to infect human foreskin fibroblast (HFF) cells at low multiplicity (less than 0.1) and incubated overnight at 37° C. in 5% CO2. After the overnight incubation, the mixture of uninfected and VZV-infected HFF infected cells are then harvested and added to each well of 96-well plates (3.5×10^4 cells in 100 1μl DMEM supplemented with 2% FBS) which contain test compound or the reference standard drug control (in 100 μl DMEM supplemented with 2% FBS per well). These cells are incubated for three days at 37° C. in 5% CO2, then fixed for ELISA assay. The primary antibody is murine anti-VZV glycoprotein II monoclonal antibody (Applied Biosystems, Inc. #13-145-100) and the secondary antibody is goat anti-mouse IgG linked to β-galactosidase. Thus the extent of viral replication is determined by assessing β-galactosidase activity by quantifying the generation of the 4-methyl umbelliferone fluorescent cleavage product after addition of the methyl umbelliferyl-β-D-galactoside (Sigma #M1633) substrate on a microfluorimeter (365 nm for excitation 450 nm for emission). Antiviral activity (IC50) of the test compound is determined by comparing the flourescence obtained in absence of compound to that obtained the presence of compound.

HCMV wild-type = test: HCMV yield assay; assay type: cell-based, human cytomegalovirus; details: human foreskin fibroblasts, reduction of virus yield by 50%; for IC50: Human betaherpesvirus 5, Fibroblast, read-out: IC50 (ug/ml) HCMV
Experimental: Yield assay. Monolayer cultures of human foreskin fibroblasts are infected with HCMV wild-type, typically at a multiplicity of infection equal to 0.2, in the presence of inhibitor compound (varying concentrations). At three days post-infection, total virus produced in these cultures (i.e. virus yield) is assessed by harvesting and titering the virus in 12-well plates of cultured human foreskin fibroblasts (done in the absence of inhibitor). Plaques are quantified at 2 weeks post-infection. An inhibitor of HCMV is identified by the reduction in titer of virus yield in the presence, compared to the titer in the absence of compound. In this assay, the relative anti-HCMV activity of an inhibitor is typically determined by calculating the IC50 or IC90 value, that is, the amount of compound required to reduce the virus yield by 50% or 90%, respectively. Table I describes IC50 data for compounds tested against HCMV.

HSV-1 = test: HSV Antiviral (ELISA) Assay; assay type: cell-based, herpes simplex virus type 1; details: HSV-1, about 24 hours post-infection; for IC50: Human alphaherpesvirus 1, Vero cells, read-out: IC50 (ug/ml) HSV
Experimental: Vero cells (ATCC #CCL-81) are plated on 96-well tissue culture plates at 3.5×10^4 cells per 100 μl tissue culture DMEM (Dulbecco's modified Eagle media) supplemented with 2% fetal bovine serum (FBS) in each well. After overnight incubation @37° C. (in 5% CO2) and 30 minutes prior to infection with HSV-1 (multiplicity of infection equal to 0.006), cells are either untreated, or treated with test compound (multiple concentrations) or reference standard drug control. After approximately 24 hours post-infection incubation @37° C. (in 5% CO2), cells are fixed for ELISA assay. The primary antibody is murine anti-HSV glycoprotein D monoclonal primary antibody and the secondary antibody is goat anti-mouse IgG linked to β-galactosidase. Thus the extent of viral replication is determined by assessing β-galactosidase activity by quantifying the generation of the 4-methyl umbelliferone fluorescent cleavage product after addition of the methyl umbelliferyl-β-D-galactoside (Sigma #M1633) substrate on a microfluorimeter (365 nm for excitation and 450 nm for emission). Antiviral activity (IC50) of the test compound is determined by comparing the flourescence obtained in absence of compound to that obtained in the presence of compound.

Cc1ccc(S(=O)(=O)n2c(C(C)NC(=S)Nc3ccc(NC(=O)c4ccccc4F)cc3)cc3ccccc32)cc1 (stereo not shown) [Example 1094, 2-Fluoro-N-[4-(3-{1-[1-(toluene-4-sulfonyl)-1H-indol-2-yl]-ethyl}-thioureido)-phenyl]-benzamide]
IC50 (VZV strain Ellen): > 7.5 µg/mL
IC50 (HCMV wild-type): > 10 µg/mL
IC50 (HSV-1): > 10 µg/mL

CC(NC(=S)Nc1ccc(NC(=O)c2ccccc2F)cc1)c1ccc2ccccc2n1 (stereo not shown) [Example 1095, 2-Fluoro-N-{4-[3-(1-quinolin-2-yl-ethyl)-thioureido]-phenyl}-benzamide]
IC50 (VZV strain Ellen): 7.1 µg/mL (≈ 16 µM)
IC50 (HCMV wild-type): 2.4 µg/mL (≈ 5.4 µM)
IC50 (HSV-1): > 10 µg/mL

CC(NC(=S)Nc1ccc(NC(=O)c2ccccc2F)cc1)c1ccnc2ccccc12 (stereo not shown) [Example 1096, 2-Fluoro-N-{4-[3-(1-quinolin-4-yl-ethyl)-thioureido]-phenyl}-benzamide]
IC50 (VZV strain Ellen): 6.7 µg/mL (≈ 15.1 µM)
IC50 (HCMV wild-type): 5.7 µg/mL (≈ 12.8 µM)
IC50 (HSV-1): > 10 µg/mL

CC(NC(=S)Nc1ccc(NC(=O)c2ccccc2F)cc1)c1cc2ccccc2cn1 (stereo not shown) [Example 1097, 2-Fluoro-N-{4-[3-(1-isoquinolin-3-yl-ethyl)-thioureido]-phenyl}-benzamide]
IC50 (VZV strain Ellen): 5.5 µg/mL (≈ 12.4 µM)
IC50 (HCMV wild-type): 4 µg/mL (≈ 9 µM)
IC50 (HSV-1): > 10 µg/mL

CC(NC(=S)Nc1ccc(NC(=O)c2ccccc2F)cc1)c1nccc2ccccc12 (stereo not shown) [Example 1098, 2-Fluoro-N-{4-[3-(1-isoquinolin-1-yl-ethyl)-thioureido]-phenyl}-benzamide]
IC50 (VZV strain Ellen): 3.8 µg/mL (≈ 8.55 µM)
IC50 (HCMV wild-type): 3.5 µg/mL (≈ 7.87 µM)
IC50 (HSV-1): 9 µg/mL (≈ 20.2 µM)

CC(NC(=S)Nc1ccc(NC(=O)c2ccccc2F)cc1)c1ccc2ncccc2c1 (stereo not shown) [Example 1099, 2-Fluoro-N-{4-[3-(1-quinolin-6-yl-ethyl)-thioureido]-phenyl}-benzamide]
IC50 (VZV strain Ellen): > 7.5 µg/mL
IC50 (HCMV wild-type): 5.6 µg/mL (≈ 12.6 µM)
IC50 (HSV-1): > 10 µg/mL

CC(NC(=S)Nc1ccc(NC(=O)c2ccccc2F)cc1)c1cnc2ccccc2c1 (stereo not shown) [Example 1100, 2-Fluoro-N-{4-[3-(1-quinolin-3-yl-ethyl)-thioureido]-phenyl}-benzamide]
IC50 (VZV strain Ellen): 7.3 µg/mL (≈ 16.4 µM)
IC50 (HCMV wild-type): 4.6 µg/mL (≈ 10.3 µM)
IC50 (HSV-1): > 10 µg/mL

COc1ccccc1C(=O)Nc1ccc(NC(=S)NC(C)c2ccsc2)cc1 (stereo not shown) [Example 1101, 2-Methoxy-N-{4-[3-(1-thiophen-3-yl-ethyl)-thioureido]-phenyl}-benzamide]
IC50 (VZV strain Ellen): 1 µg/mL (≈ 2.43 µM)
IC50 (HCMV wild-type): > 10 µg/mL
IC50 (HSV-1): > 10 µg/mL

[1,2,3]Thiadiazole-4-carboxylic acid {4-[3-(5-chloro-pyridin-3-yl)-thioureido]-phenyl}-amide [Example 520]
% inhibition 10 ug/ml VZV (VZV strain Ellen; 10 ug/ml): 38%
IC50 (ug/ml) VZV (VZV strain Ellen): >10 µg/mL
IC50 (ug/ml) HCMV (HCMV wild-type): 0.32 µg/mL
IC50 (ug/ml) HSV (HSV-1; Vero cells): 12 µg/mL
